Laboratory results taken from the CheMixHub viscosity set.

Test: xn = mol fraction of the nth substance listed

ClC(Cl)Cl + c1ccccc1
Settings | viscosity [mPa·s]
293.15 K, 101 kPa, x1 = 0.101 | 0.627
293.15 K, 101 kPa, x1 = 0.245 | 0.606
293.15 K, 101 kPa, x1 = 0.433 | 0.593
293.15 K, 101 kPa, x1 = 0.653 | 0.582
298 K, 101 kPa, x2 = 0.1452 | 0.5431
298 K, 101 kPa, x2 = 0.2124 | 0.5457
298 K, 101 kPa, x2 = 0.2765 | 0.5478
298 K, 101 kPa, x2 = 0.3958 | 0.5532
298 K, 101 kPa, x2 = 0.5047 | 0.559
298 K, 101 kPa, x2 = 0.5556 | 0.562
298 K, 101 kPa, x2 = 0.6045 | 0.566
298 K, 101 kPa, x2 = 0.6513 | 0.5702
298 K, 101 kPa, x2 = 0.6963 | 0.5751
298 K, 101 kPa, x2 = 0.781 | 0.5844
298 K, 101 kPa, x2 = 0.8594 | 0.5943
298 K, 101 kPa, x2 = 0.8965 | 0.6002
298 K, 101 kPa, x2 = 0.9322 | 0.6044
298.15 K, 101 kPa, x1 = 0.0974 | 0.587
298.15 K, 101 kPa, x1 = 0.1964 | 0.581
298.15 K, 101 kPa, x1 = 0.2012 | 0.5935
298.15 K, 101 kPa, x1 = 0.3014 | 0.5886
298.15 K, 101 kPa, x1 = 0.3582 | 0.5866
298.15 K, 101 kPa, x1 = 0.4568 | 0.5805
298.15 K, 101 kPa, x1 = 0.4857 | 0.5773
298.15 K, 101 kPa, x1 = 0.6022 | 0.57
298.15 K, 101 kPa, x1 = 0.6861 | 0.557
298.15 K, 101 kPa, x1 = 0.7542 | 0.5603
298.15 K, 101 kPa, x1 = 0.8971 | 0.546
298.15 K, 101 kPa, x2 = 0.1029 | 0.546
298.15 K, 101 kPa, x2 = 0.1297 | 0.5454
298.15 K, 101 kPa, x2 = 0.2 | 0.525
298.15 K, 101 kPa, x2 = 0.2983 | 0.5512
298.15 K, 101 kPa, x2 = 0.3141 | 0.557
298.15 K, 101 kPa, x2 = 0.3724 | 0.5535
298.15 K, 101 kPa, x2 = 0.4 | 0.541
298.15 K, 101 kPa, x2 = 0.4086 | 0.5544
298.15 K, 101 kPa, x2 = 0.49 | 0.558
298.15 K, 101 kPa, x2 = 0.5395 | 0.5613
298.15 K, 101 kPa, x2 = 0.6 | 0.555
298.15 K, 101 kPa, x2 = 0.6023 | 0.5633
298.15 K, 101 kPa, x2 = 0.6707 | 0.5656
298.15 K, 101 kPa, x2 = 0.6862 | 0.5668
298.15 K, 101 kPa, x2 = 0.7414 | 0.5709
298.15 K, 101 kPa, x2 = 0.8 | 0.574
298.15 K, 101 kPa, x2 = 0.8037 | 0.581
298.15 K, 101 kPa, x2 = 0.8801 | 0.5866
298.15 K, 101 kPa, x2 = 0.9029 | 0.587
298.15 K, 101 kPa, x2 = 0.9214 | 0.589
298.15 K, 101 kPa, x2 = 0.962 | 0.5949
298.15 K, 101.33 kPa, x1 = 0.0672 | 0.5938
298.15 K, 101.33 kPa, x1 = 0.1508 | 0.5847
298.15 K, 101.33 kPa, x1 = 0.2151 | 0.5795
298.15 K, 101.33 kPa, x1 = 0.3057 | 0.5722
298.15 K, 101.33 kPa, x1 = 0.5108 | 0.5613
298.15 K, 101.33 kPa, x1 = 0.6489 | 0.559
298.15 K, 101.33 kPa, x1 = 0.8164 | 0.5493
298.15 K, 101.33 kPa, x1 = 0.9301 | 0.5403
303.15 K, 101 kPa, x1 = 0.101 | 0.548
303.15 K, 101 kPa, x1 = 0.245 | 0.533
303.15 K, 101 kPa, x1 = 0.433 | 0.527
303.15 K, 101 kPa, x1 = 0.653 | 0.52
308 K, 101 kPa, x2 = 0.1452 | 0.4917
308 K, 101 kPa, x2 = 0.2124 | 0.4939
308 K, 101 kPa, x2 = 0.2765 | 0.4958
308 K, 101 kPa, x2 = 0.3958 | 0.5001
308 K, 101 kPa, x2 = 0.5047 | 0.5049
308 K, 101 kPa, x2 = 0.5556 | 0.5077
308 K, 101 kPa, x2 = 0.6045 | 0.5108
308 K, 101 kPa, x2 = 0.6513 | 0.5136
308 K, 101 kPa, x2 = 0.6963 | 0.5168
308 K, 101 kPa, x2 = 0.781 | 0.5225
308 K, 101 kPa, x2 = 0.8594 | 0.5282
308 K, 101 kPa, x2 = 0.8965 | 0.5311
308 K, 101 kPa, x2 = 0.9322 | 0.5336
313.15 K, 101 kPa, x1 = 0.101 | 0.483
313.15 K, 101 kPa, x1 = 0.245 | 0.473
313.15 K, 101 kPa, x1 = 0.433 | 0.47
313.15 K, 101 kPa, x1 = 0.653 | 0.471
318 K, 101 kPa, x2 = 0.1452 | 0.451
318 K, 101 kPa, x2 = 0.2124 | 0.452
318 K, 101 kPa, x2 = 0.2765 | 0.4532
318 K, 101 kPa, x2 = 0.3958 | 0.4558
318 K, 101 kPa, x2 = 0.5047 | 0.4587
318 K, 101 kPa, x2 = 0.5556 | 0.4602
318 K, 101 kPa, x2 = 0.6045 | 0.4618
318 K, 101 kPa, x2 = 0.6513 | 0.4635
318 K, 101 kPa, x2 = 0.6963 | 0.4652
318 K, 101 kPa, x2 = 0.781 | 0.4685
318 K, 101 kPa, x2 = 0.8594 | 0.472
318 K, 101 kPa, x2 = 0.8965 | 0.4738
318 K, 101 kPa, x2 = 0.9322 | 0.4755
323.15 K, 101 kPa, x1 = 0.101 | 0.431
323.15 K, 101 kPa, x1 = 0.245 | 0.426
323.15 K, 101 kPa, x1 = 0.433 | 0.43
